Test results published in patent US8273771B2, “Ischemic disorder or disease inhibitors” (Pronas Pharma AB, priority 2007, dated 2012).

What was measured:
Format in all cases: in vivo, rat
[1] = test system: MCA from rats with induced SAH; test: Myograph contractile response to Ang II (via AT1) in cerebral arteries of treated SAH rats; conditions: in presence of PD123319, compared to SAH rats, no significant difference to sham
Protocol: The brains were quickly removed and chilled in ice-cold bicarbonate buffer solution (see composition below). Under a dissection microscope, the middle cerebral artery (MCA), the basilar artery (BA) and circle of Willis were carefully dissected free from the brain and cleared of connective tissue. The MCA and BA were immediately mounted in myographs for in vitro pharmacology or snap frozen at -80° C. and examined by real-time PCR. […] Measurements were recorded on a computer by use of a PowerLab unit (ADInstruments). […] The contractile capacity was determined by exposing the vessels to an isotonic solution containing 63.5 mM of K+, obtained by partial change of NaCl for KCl in the above buffer. […] Data are expressed as mean±standard error of the mean (s.e.m.), and n refers to the number of rats. […] In vitro Pharmacology Contractile responses in each segment are expressed as percentage of the 63.5 mM K+ induced contraction. […]

ETB receptor protein = test: Immunohistochemistry of cerebral arteries after SAH; conditions: smooth muscle cell layer; sham 100±3%, SAH 167±4%
Excerpt: (§1) The MCA and BA were dissected out and then placed onto Tissue TEK (Gibco) and frozen. They were then sectioned into 10 μm thick slices. The primary antibodies used were rabbit antihuman ETB (IBL, 16207), diluted 1:400, goat anti mouse 5-HT1B (Santa Cruz Biotechnologies, sc-1461), diluted 1:100, AT1 (Santa Cruz Biotechnologies), diluted 1:100, mouse anti rat CD31 (Serotec, MCA1746), diluted 1:200, and mouse anti rat smooth muscle actin (Serotec, MCA1905T) diluted 1:100. All dilutions were done in PBS with 10% fetal calf serum. The secondary antibodies used were donkeyantimouse Cy™5 conjugated (JacksonImmunoResearch, 715-175-150) 1:100, donkeyantirabbit Cy™3 conjugated (JacksonImmunoResearch, 711-165-152) 1:100 in PBS with 10% fetal calf serum. The antibodies were detected at the appropriate wavelength in a confocal microscopy (Zeiss, USA). As control, only secondary antibodies were used.
(§2) The images were analysed using the ImageJsoftware (http://rsb.info.nih.gov/ij/). The fluorescence in 4-6 different areas in each artery was measured and a mean value was calculated. These values are presented as percentage fluorescence in the SAH groups compared to the sham group, where the sham group is set to 100%.

AT1 receptor protein = test: as above; conditions: smooth muscle cell layer; sham 100±7%, SAH 168±7%
Excerpt: as §1, §2

Oc1cc(-c2nc(-c3ccccc3)[nH]c2-c2ccncc2)ccc1Cl [SB386023-b]
Ang II induced contractile response [1]: significantly attenuated
ETB receptor protein level, fluorescence compared to sham (ETB receptor protein): 109±5%
AT1 receptor protein level, fluorescence compared to sham (AT1 receptor protein): 105±10%
